Measured values taken from the SangsterLogP compilation.

Columns and labels:
[1] = method code SF-HPLC, from DOI: 10.1584/jpestics.11.469
[2] = method code SF-AS, from DOI: 10.1021/jm9800301, PMID: 9748357; details: pH 7.4
[3] = method code SF-AS, from DOI: 10.3390/molecules16097565, PMID: 21894089
[4] = not given; remark: listed apart in the source
[5] = method code SF-AS, from DOI: 10.1002/chin.199708138, PMID: 8917646; details: pH 7.4
[6] = method code SF-HPLC, from DOI: 10.1039/p29890001935
[7] = method code SF-HPLC, from DOI: 10.1016/0378-5173(94)90060-4; details: pH 5.0
[8] = not given; remark: listed apart in the source
[9] = method code SF-RC, from DOI: 10.1016/j.bmc.2015.06.036, PMID: 26145817; details: pH 7.4
[10] = method code SF-AS, from Kourounakis, P.; Chilliard, N. (1983). Ionization constants and partition coefficients of some 1,1-diphenyl-1-alkoxy-3-dialkylamino-2-propanones with analgesic activity. Pharmazie, 38(6)388-389.; details: pH 7.4
[11] = method code SF-AS, from DOI: 10.1007/bf02857814, PMID: 1608986
[12] = method code SF, from DOI: 10.1016/s0960-894x(04)00268-9, PMID: 15109667; details: pH 7.4
[13] = not given; remark: listed apart in the source
[14] = method code SF-HPLC, from DOI: 10.1023/a:1015828802490, PMID: 2308896
[15] = method code SF-HPLC, from Thijssen, W. (1981). The relationship between Log P, Rm, log k' and the constants pi and f: a study on penicillins. Eur J Med Chem, 16(5)449-452.
[16] = method code SF-HPLC, from DOI: 10.1016/j.jpba.2011.06.023, PMID: 21782368; details: pH 7.4
[17] = method code SF-RC, from DOI: 10.1021/jm701375u, PMID: 18307287; details: pH 7.4
[18] = method code SF-AS, from DOI: 10.1016/s0026-895x(25)13808-x, PMID: 93689
[19] = method code SF-HPLC, from PMID: 2780588
[20] = method code SF-HPLC, from DOI: 10.1016/j.ejmech.2003.12.002, PMID: 15051170
[21] = method code SF-AS, from DOI: 10.1002/jps.2600790421, PMID: 2352153
[22] = method code SF-GLC, from DOI: 10.1023/a:1015803202857, PMID: 2395795
[23] = method code SF-AS, from DOI: 10.1006/pest.1994.1014
[24] = method code SF, from PMID: 8999431; details: pH 7.4
[25] = not given; remark: listed apart in the source
[26] = method code RP-HPLC, from DOI: 10.1021/jm970292n, PMID: 9371243
[27] = method code SF-RC, from DOI: 10.1016/j.bmc.2013.10.046, PMID: 24262882; details: pH 7.4
[28] = method code SF, from DOI: 10.1002/jps.2600830715, PMID: 7965680
[29] = method code SF-AS, from DOI: 10.1016/0223-5234(94)90120-1; details: pH 7.4

CCOC(=O)C(C)Oc1ccc(Oc2cnc3cc(C(F)(F)F)ccc3n2)cc1 (stereo not given)
logP [1]: 4.37

COc1ccc(CNC(=O)C(=O)c2c[nH]c3ccc([N+](=O)[O-])cc23)cc1
logD [2]: 2.17

CC(C)c1ccc(N2C(=O)C(=O)N([C@H](C)c3nc4ccc(F)cc4s3)C2=O)cc1
logP [3]: 1.64

C[C@H](c1nc2ccc(F)cc2s1)N1C(=O)C(=O)N(c2ccc(Cl)cc2)C1=O
logP [3]: 0.41

C=CCOc1ccccc1OCC(CNC(C)C)OC(=O)/C=C/C (stereo not given)
logP: 3.65

CC(=O)[C@H]1CC[C@H]2[C@@H]3CC=C4C[C@@H](O)CC[C@]4(C)[C@H]3CC[C@]12C
logP [4]: 4.22

COC(=O)C1=C(C)NC(C)=C(C(=O)OCCO)C1c1cccc(Cl)c1Cl (stereo not given)
logD [5]: 2.37

Fc1ccccc1C1OCC2ON=C(c3ccccc3)C2CO1 (stereo not given)
logP [6]: 2.35

CCOC(=O)n1c(NC(=O)OC)nc2cc(C(=O)c3ccccc3)ccc21
logD [7]: 2.93

O=C1CC[C@@](c2ccccc2)(C2CCN(Cc3ccccc3)CC2)C(=O)N1
logP [8]: 3.55

CN(C)CCC=C1c2ccccc2CCc2c(Cl)cccc21
logP [8]: 5.55

CCN(CCCCF)c1cc(C)nc2c(-c3ccc(Cl)cc3Cl)c(C)nn12
logD [9]: 2.81

COC(C(=O)N(C)C)(c1ccccc1)c1ccccc1
logD [10]: 0.78

CCn1cc(C(=O)NC(CSSCC(N)C(=O)OC)C(=O)OC)c(=O)c2ccc(C)nc21 (stereo not given)
logP [11]: 0.91

CC(=O)OC(CC#CCS(=O)(=O)c1ccc([N+](=O)[O-])cc1)Cn1ccnc1[N+](=O)[O-] (stereo not given)
logD [12]: 1.18

CN(C)CCC=C1c2ccccc2CCc2ccccc21
logP [13]: 5.04

COc1c(C)c2c(c(OC(C)=O)c1C/C=C(\C)CCC(=O)OCC1COC(C)(C)O1)C(=O)OC2 (stereo not given)
logD ([14]; pH 7.4): 2.87

CC(=O)OC(CC#CCS(=O)(=O)c1ccccc1)Cn1ccnc1[N+](=O)[O-] (stereo not given)
logD [12]: 1.35

Cc1onc(-c2ccccc2)c1C(=O)NC1C(=O)N2C1S(=O)C(C)(C)C2C(=O)O (stereo not given)
logP [15]: 1.8

CCCOC(=O)CC(CNC(=O)OC(C)(C)C)c1ccc(Cl)cc1 (stereo not given)
logD [16]: 3

Oc1ccccc1N1CCN(Cc2cnn3ccccc23)CC1
logD [17]: 2.15

CN1CCN(C2=Nc3cc(Cl)ccc3Nc3ccccc32)CC1
logP [18]: 3.32

CN(C)CC(=O)C(Oc1ccccc1)(c1ccccc1)c1ccccc1
logD [10]: 1.57

CCOC(=O)C(C)Oc1ccc(Oc2cnc3ccccc3n2)cc1 (stereo not given)
logP [1]: 3.48

CCCCCCCCOC(=O)Cc1ccc(O)c(OC)c1
logP [19]: 4.04

CCCOC(=O)n1c(NC(=O)OC)nc2cc(C(=O)c3ccccc3)ccc21
logD [7]: 3.43

COC(=O)C(C)NP(=O)(OCC1C=CC(n2cc(C)c(=O)[nH]c2=O)O1)Oc1cc(Cl)ccc1Cl (stereo not given)
logP [20]: 1.41

CC(C)[C@H](NC(=O)[C@H](c1ccccc1)N(CCCl)N=O)C(=O)NC(=O)NCCCl
logP [21]: 3.32

OC(CCN1CCCCC1)(c1ccccc1)C1CCCCC1 (stereo not given)
logP [22]: 4.49

Cc1ccccc1C(=O)NN(C(=O)c1ccccc1Cl)C(C)(C)C
logP [23]: 2.91

CCC(C)C(NC(=O)c1cn(CC)c2nc(C)ccc2c1=O)C(=O)OC (stereo not given)
logD [24]: 2.64

CCN(CCOCCF)c1cc(C)nc2c(-c3ccc(Cl)cc3Cl)c(C)nn12
logD [9]: 3.8

CC(C)(C)N(NC(=O)c1ccccc1Cl)C(=O)c1ccccc1Cl
logP [23]: 2.75

Clc1ccccc1C1OCC2ON=C(c3ccccc3)C2CO1 (stereo not given)
logP [6]: 2.92

CCO[C@@H](Cc1ccc(OC/C=C/C#Cc2ccccc2)cc1)C(=O)O
logP [25]: 3.87

CC(=O)Oc1cccc2cc3cccc(OC(C)=O)c3c(OC(C)=O)c12
logP [26]: 2.02

COC(=O)C1=C(C)NC(C)=C(C(=O)OCCOC(=O)C2=CN(C)C=CC2)C1c1cccc(Cl)c1Cl (stereo not given)
logD [5]: 2.56

COc1c(C)c2c(c(O)c1C/C=C(\C)CCC(=O)O)C(=O)OC2
logD ([14]; pH 2.0): 2.76

COC(=O)C1C(c2ccc(I)cc2)C2CCC1N2CC=CI (stereo not given)
logD [27]: 5.29

CC(C)C(NC(=O)N(CCCl)N=O)C(=O)NC1CC(C)(C)N(O)C(C)(C)C1 (stereo not given)
logP [28]: 2.09

C=CCOc1ccccc1OCC(CNC(C)C)OC(=O)CCCC (stereo not given)
logP: 4

S=C1SCN(Cc2ccccc2)CN1CCc1ccccc1
logD [29]: 5

Brc1cccc(N2CCN(Cc3cc4ccccn4n3)CC2)n1
logD [17]: 1.78

CC(C)(C)[C@]1(O)CCN2CC3c4ccccc4CCc4cccc(c43)C2C1 (stereo not given in full)
logP [18]: 4.35

CCn1cc(C(=O)NC(C(=O)OC)C(C)C)c(=O)c2ccc(C)nc21 (stereo not given)
logD [24]: 3.61

CC(C)OC(=O)CC(CNC(=O)OC(C)(C)C)c1ccc(Cl)cc1 (stereo not given)
logD [16]: 3.4

O=C1c2c(O)cccc2Cc2cccc(-c3ccccc3)c21
logP [26]: 3.99

S=C1SCN(Cc2ccccc2)CN1Cc1ccccc1
logD [29]: 4.9

CC(C)=CCN1CC[C@@]2(C)c3cc(O)ccc3C[C@@H]1[C@@H]2C
logP [22]: 3.31

CCn1cc(C(=O)NC(Cc2c[nH]cn2)C(=O)OC)c(=O)c2ccc(C)nc21 (stereo not given)
logP [11]: 0.31

COC(=O)C(C)(C)Oc1ccc(C(=O)c2ccc(Cl)cc2)cc1
logP [25]: 4.27

CC1(C)CC(NC(=O)C(Cc2ccccc2)NC(=O)N(CCCl)N=O)CC(C)(C)N1O (stereo not given)
logP [28]: 2.3

CN(C)CCC=C1c2ccccc2CSc2ccccc21
logP [13]: 4.49

O=C(OCCF)C1C(c2ccc(I)cc2)C2CCC1N2CC=CI (stereo not given)
logD [27]: 5.39

CC(C)[C@H](NC(=O)[C@H](Cc1ccccc1)N(CCCl)N=O)C(=O)NC(=O)NCCCl
logP [21]: 3.46

O=C(NCc1ccc(F)cc1)C(=O)c1c[nH]c2ccccc12
logD [2]: 2.88

Cc1onc(-c2c(Cl)cccc2Cl)c1C(=O)NC1C(=O)N2C1SC(C)(C)C2C(=O)O (stereo not given)
logP [15]: 2.89

C[C@]12CC[C@@H]3c4ccc(O)cc4CC[C@H]3[C@@H]1C[C@@H](O)[C@@H]2O
logP [4]: 2.45

CCCCCCCCNC(=O)Cc1ccc(O)c(OC)c1
logP [19]: 2.94

COC(=O)C(C)NP(=O)(OCC1C=CC(n2cc(C)c(=O)[nH]c2=O)O1)Oc1ccc(N(C)C)cc1 (stereo not given)
logP [20]: 0.76
